The values below are quoted from earlier work in publication PMC6063804 (EJNMMI Research, 2018).

SMILES strings stand for the structures.

For series [1] the following is noted: cited from earlier work.
In another series the test system is NMDA-R. The note with it: cited from earlier work.

In the case of `CSc1ccc(Cl)c(NC(=N)N(C)c2cccc(OC[18F])c2)c1` [[^18F]PK-209, 3-(2-chloro-5-(methylthio)phenyl)-1-(3-([^18F]fluoromethoxy)phenyl)-1-methylguanidine], the “LogDoct,7.4” value in series [1] is reported as 1.45. In addition, the “reduction in mean SUVAUC after MK-801 administration” value in the series with NMDA-R (non-human primate) is reported as 15%. The “volume of distribution (VT) compared with baseline” value with NMDA-R (rhesus monkeys, IV 0.3 mg ∙ kg^−1 MK-801 30 min before PET) is listed as “reduced the volume of distribution (VT) compared with baseline in two out of three subjects”. Further, the “retention in NMDA-R-rich cortical regions relative to the cerebellum” value in the series with NMDA-R (rhesus monkeys) is on record as “prolonged retention”.
